According to ChEMBL document CHEMBL3132861 (Medchemcomm, 2013):

Assays:
[1] = Inhibition of microtubule depolymerization in rat A10 cells after 18 hrs by immunofluorescence assay; assay type: cell-based
[2] = Antiproliferative activity against human MDA-MB-435 cells by SRB assay
A10 = experiment: Inhibition of microtubule depolymerization in rat A10 cells at 75 uM after 18 hrs by immunofluorescence assay; assay type: cell-based

Row | Compound | EC50 [1] [µM] | pEC50 [1] | IC50 [2] [µM] | inhibition (A10) [%]
1 | CCOC(=O)c1[nH]c(Br)c(-c2ccc(OC(F)(F)F)cc2)c1Br | 27.1 | 4.57 | – | –
2 | CCOC(=O)c1[nH]c(Br)c(-c2ccc3c(c2)OCO3)c1Br | 29.7 | 4.53 | – | –
3 | CCOC(=O)c1[nH]c(Br)c(-c2ccc(OC)c(F)c2)c1Br | 14.1 | 4.85 | – | –
4 | CCOC(=O)c1[nH]c(Br)c(-c2ccc(SC)cc2)c1Br | 18.5 | 4.73 | – | –
5 | CCOC(=O)c1[nH]c(Br)c(-c2cccc3ccccc23)c1Br | 7 | 5.15 | 3.24 | –
6 | CCOC(=O)c1[nH]c(Br)c(-c2ccc(Cl)cc2)c1Br | > 75 | 3.82 | – | –
7 | CCOC(=O)c1[nH]c(Br)c(-c2ccc3c(c2)OCCO3)c1Br | 20.9 | 4.68 | 4.36 | –
8 | CCOC(=O)c1[nH]c(Br)c(-c2ccc(OC)cc2)c1Br | 7 | 5.15 | – | –
9 | CCOC(=O)c1[nH]c(Br)c(-c2ccc(Cl)c(Cl)c2)c1Br | 9.9 | 5 | – | –
10 | CCOC(=O)c1[nH]c(Br)c(-c2cc(OC)c(OC)cc2Br)c1Br | 14 | 4.85 | 2.64 | –
11 | CCOC(=O)c1[nH]c(Br)c(-c2cc(OC)c(OC)c(OC)c2)c1Br | > 75 | 3.82 | 12.9 | –
12 | CCOC(=O)c1[nH]c(Br)c(-c2ccc3cc(OCC)ccc3c2)c1Br | > 75 | 3.82 | 1.99 | –
13 | CCOC(=O)c1[nH]c(Br)c(-c2ccc(Br)cc2)c1Br | 94 | 4.03 | – | 40
14 | CCOC(=O)c1[nH]c(Br)c(-c2cccc(OC)c2)c1Br | 2.4 | 5.62 | – | –
15 | CCOC(=O)c1[nH]c(Br)c(-c2ccc(C)cc2)c1Br | > 75 | 3.82 | 2.24 | –
16 | CCOC(=O)c1[nH]c(Br)c(-c2ccccc2)c1Br | > 75 | 3.82 | 10.3 | –
17 | CCOC(=O)c1[nH]c(Br)c(-c2c[nH]c3ccccc23)c1Br | 17.8 | 4.75 | 1.98 | –
